Experimental data taken from DBAASP.
In brackets after ≈: the same amount, converted by molar mass.

Tests used:
Experiment in all cases: ≥ marks a high value that may be exact or a test limit, other limits are often not marked, values filed in µg/mL are converted to µM
[1] = system: Aspergillus awamori KCTC 6915
[2] = system: Aspergillus flavus KCTC 6905
[3] = system: Aspergillus fumigatus KCTC 6145
[4] = system: Aspergillus parasiticus KCTC 6598
[5] = system: Bacillus subtilis KCTC 1918
[6] = system: Bacillus subtilis KCTC 1998
[7] = system: Candida albicans KCTC 7270
[8] = system: Escherichia coli CCARM 1229
[9] = system: Escherichia coli CCARM 1238
[10] = system: Listeria monocytogenes ATCC 19115
[11] = system: Listeria monocytogenes KCTC 3710
[12] = system: Proteus vulgaris KCTC 2433
[13] = system: Pseudomonas aeruginosa 3547
[14] = system: Pseudomonas aeruginosa 4007
[15] = system: Pseudomonas aeruginosa ATCC 15692
[16] = system: Pseudomonas aeruginosa KCTC 1637
[17] = system: Salmonella typhimurium CCARM 8009
[18] = system: Salmonella typhimurium CCARM 8013
[19] = system: Salmonella typhimurium KCTC 1926
[20] = system: Staphylococcus aureus CCARM 3089
[21] = system: Staphylococcus aureus CCARM 3114
[22] = system: Staphylococcus aureus PBEL
[23] = system: Staphylococcus epidermidis ATCC 12228
[24] = system: Staphylococcus epidermidis KCTC 3096
[25] = system: Trichosporon beigelii KCTC 7707
Candida glabrata 090902 = system: Candida glabrata 090902
[26] = system: Enterobacter cloacae CGMCC 1.57
[27] = system: Enterococcus faecalis 981
[28] = system: Enterococcus faecium 091299
Nocardia asteroides = system: Nocardia asteroides
[29] = system: Psychrobacter faecalis X29
[30] = system: Staphylococcus aureus ATCC 25923
Aerococcus viridans = system: Aerococcus viridans
Bacillus megaterium = system: Bacillus megaterium
Botrytis cinerea = system: Botrytis cinerea
Enterobacter cloacae = system: Enterobacter cloacae
Escherichia coli 363 = system: Escherichia coli 363
Fusarium oxysporum = system: Fusarium oxysporum
Klebsiella pneumoniae = system: Klebsiella pneumoniae
Micrococcus luteus = system: Micrococcus luteus
[31] = system: Pectobacterium carotovorum
Penicillium crustosum = system: Penicillium crustosum
Salmonella typhimurium = system: Salmonella typhimurium
Staphylococcus aureus = system: Staphylococcus aureus
Vibrio alginolyticus = system: Vibrio alginolyticus
Vibrio anguillarum = system: Vibrio anguillarum
Vibrio harveyi = system: Vibrio harveyi
Vibrio penaeicida = system: Vibrio penaeicida
[32] = system: Staphylococcus aureus A170
[33] = system: Staphylococcus epidermidis
[34] = system: Candida albicans ATCC 37092
[35] = system: Escherichia coli ATCC 25922
[36] = system: Staphylococcus aureus ATCC 29213

An MIC [1] of 8 µM (≈ 15.4 µg/mL), an MIC [2] of 8 µM (≈ 15.4 µg/mL) and an MIC [3] of 4 µM (≈ 7.7 µg/mL) were found for `CC[C@H](C)[C@H](NC(=O)[C@H](CCCCN)NC(=O)[C@H](CCCCN)NC(=O)[C@H](C)NC(=O)[C@H](CC(C)C)NC(=O)[C@H](CCCCN)NC(=O)[C@H](CCCCN)NC(=O)[C@H](CC(C)C)NC(=O)[C@H](CCCN=C(N)N)NC(=O)[C@H](CCCCN)NC(=O)[C@H](C)N)C(=O)N[C@@H](Cc1c[nH]c2ccccc12)C(=O)N[C@@H](CCCCN)C(=O)N[C@@H](Cc1c[nH]c2ccccc12)C(=O)N[C@@H](CCCCN)C(N)=O` [AKRLKKLAKKIWKWK] in this work. For the same molecule, the MIC [4] was 8 µM (≈ 15.4 µg/mL), the MIC [5] was 2 µM (≈ 3.85 µg/mL) and the MIC [6] was 2 µM (≈ 3.85 µg/mL). It also gave an MIC [7] of 8 µM (≈ 15.4 µg/mL), an MIC [8] of 1.41 µM (≈ 2.72 µg/mL) and an MIC [9] of 2 µM (≈ 3.85 µg/mL). For the same molecule, the MIC [10] was 2 µM (≈ 3.85 µg/mL), the MIC [11] was 2 µM (≈ 3.85 µg/mL) and the MIC [12] was 2.83 µM (≈ 5.44 µg/mL). It also gave an MIC [13] of 2.83 µM (≈ 5.44 µg/mL), an MIC [14] of 1 µM (≈ 1.92 µg/mL) and an MIC [15] of 2 µM (≈ 3.85 µg/mL). For the same molecule, the MIC [16] was 2 µM (≈ 3.85 µg/mL), the MIC [17] was 2 µM (≈ 3.85 µg/mL) and the MIC [18] was 1 µM (≈ 1.92 µg/mL). For the same molecule, the MIC [19] was 1.41 µM (≈ 2.72 µg/mL), the MIC [20] was 2 µM (≈ 3.85 µg/mL) and the MIC [21] was 4 µM (≈ 7.7 µg/mL). It also gave an MIC [22] of 1 µM (≈ 1.92 µg/mL), an MIC [23] of 2.83 µM (≈ 5.44 µg/mL) and an MIC [24] of 2.83 µM (≈ 5.44 µg/mL). It also gave an MIC [25] of 16 µM (≈ 30.8 µg/mL).

An MIC (Candida glabrata 090902) of 12.5 µM (≈ 32 µg/mL), an MIC [26] of no less than 100 µM and an MIC [27] of 3.1 µM (≈ 7.94 µg/mL) were found for `CC[C@H](C)[C@H](NC(=O)[C@H](C)NC(=O)[C@@H](NC(=O)[C@@H]1CCCN1C(=O)[C@H](CC(C)C)NC(=O)[C@@H](NC(=O)[C@H](Cc1cnc[nH]1)NC(=O)[C@H](C)NC(=O)[C@H](C)NC(=O)[C@@H](NC(=O)[C@H](CCCCN)NC(=O)[C@H](CC(C)C)NC(=O)[C@@H](NC(=O)[C@H](C)NC(=O)[C@@H]1CCCN1C(=O)[C@H](CC(C)C)NC(=O)[C@@H](N)Cc1ccccc1)C(C)C)C(C)C)[C@@H](C)CC)[C@@H](C)O)C(=O)N[C@H]1CSSC[C@@H](C(=O)O)NC(=O)[C@H](CCCN=C(N)N)NC(=O)[C@H](CCCN=C(N)N)NC(=O)[C@H](CO)NC(=O)[C@H]([C@@H](C)CC)NC(=O)[C@H](C)NC1=O` [FLPAVLKVAAHILPTAICAISRRC] in this work. The MIC [28] was no less than 50 µM, the MIC (Nocardia asteroides) was 3.1 µM (≈ 7.94 µg/mL) and the MIC [29] was 25 µM (≈ 64.1 µg/mL). For the same molecule, the MIC [30] was 3.1 µM (≈ 7.94 µg/mL).

An MIC (Aerococcus viridans) of 6.25 µM (≈ 14.2 µg/mL), an MIC (Bacillus megaterium) of 3.12 µM (≈ 7.07 µg/mL) and an MIC (Botrytis cinerea) of 12.5 µM (≈ 28.3 µg/mL) were found for `CSCC[C@H](NC(=O)[C@H](CCCN=C(N)N)NC(=O)CNC(=O)[C@H](CCCCN)NC(=O)[C@H](Cc1ccc(O)cc1)NC(=O)[C@H](Cc1ccc(O)cc1)NC(=O)[C@@H](NC(=O)[C@H](CCC(N)=O)NC(=O)[C@H](Cc1ccccc1)NC(=O)[C@H](CCCN=C(N)N)NC(=O)[C@H](CCCCN)NC(=O)[C@H](CC(C)C)NC(=O)[C@H](Cc1ccc(O)cc1)NC(=O)[C@@H]1CCCN1C(=O)[C@@H](N)CCCCN)C(C)C)C(=O)N[C@@H](Cc1c[nH]c2ccccc12)C(=O)N[C@@H](CS)C(=O)O` [KPYLKRFQVYYKGRMWC] in this work. The MIC (Enterobacter cloacae) was 25 µM (≈ 56.7 µg/mL), the MIC (Escherichia coli 363) was 25 µM (≈ 56.7 µg/mL) and the MIC (Fusarium oxysporum) was 12.5 µM (≈ 28.3 µg/mL). The MIC (Klebsiella pneumoniae) was 25 µM (≈ 56.7 µg/mL), the MIC (Micrococcus luteus) was 6.25 µM (≈ 14.2 µg/mL) and the MIC [31] was no less than 50 µM. It also gave an MIC (Penicillium crustosum) of 25 µM (≈ 56.7 µg/mL), an MIC (Salmonella typhimurium) of 25 µM (≈ 56.7 µg/mL) and an MIC (Staphylococcus aureus) of 50 µM (≈ 113 µg/mL). For the same molecule, the MIC (Vibrio alginolyticus) was 25 µM (≈ 56.7 µg/mL), the MIC (Vibrio anguillarum) was no less than 100 µM and the MIC (Vibrio harveyi) was no less than 50 µM. It also gave an MIC (Vibrio penaeicida) of no less than 100 µM.

An MIC [32] of 6.9 µM (≈ 10 µg/mL) and an MIC [33] of 13.8 µM (≈ 20 µg/mL) were found for `CC[C@H](C)[C@H](NC(=O)[C@@H](NC(=O)[C@@H](NC(=O)[C@@H]1CCCN1C(=O)[C@H](CC(C)C)NC(=O)[C@@H](N)CC(C)C)[C@@H](C)CC)C(C)C)C(=O)N[C@@H](CC(N)=O)C(=O)N[C@@H](CC(C)C)C(=O)N[C@@H](CC(C)C)C(=O)N[C@@H](CCCCN)C(=O)N[C@@H](CO)C(=O)N[C@@H](CC(C)C)C(=O)N[C@@H](CC(C)C)C(=O)O` [LLPIVINLLKSLL] in this work.

An MIC [34] of no less than 500 µM, an MIC [35] greater than 500 µM and an MIC [36] greater than 500 µM were found for `CC(C)C[C@H](NC(=O)[C@@H]1CCCN1C(=O)[C@H](CCCN=C(N)N)NC(=O)[C@@H]1CCCN1C(=O)[C@H](CCCN=C(N)N)NC(=O)[C@@H]1CCCN1)C(=O)N1CCC[C@H]1C(=O)N[C@@H](Cc1ccccc1)C(=O)N1CCC[C@H]1C(=O)N[C@@H](CCCN=C(N)N)C(=O)N1CCC[C@H]1C(=O)NCC(=O)O` [PRPRPLPFPRPG] in this work.
